Source: US20090099346A1 (priority 2003, published 2009)

How the values were obtained:
[1] = Thermal stability study under accelerated storage conditions (HPLC assay, doxorubicinone quantity, total impurities); type: physicochemical
Experimental: The type II crystalline epirubicin hydrochloride obtained in Example 1 and type I crystalline epirubicin hydrochloride obtained in reference Example 3 were each kept at a temperature 40° C. for six months, thereby simulating accelerated storage conditions. The thermal stability was investigated and measured by studying the following parameters: (1) assay (HPLC method), (2) doxorubicinone quantity (doxorubicinone, an aglycone of epirubicin, is the major epirubicin degradation product), and (3) total impurities.

[2] = Powder X-ray diffraction of commercial batches after accelerated storage; type: physicochemical; settings: 3 commercial batches, 6 months of accelerated storage conditions (40° C.)
Experimental: In this example, powder X-ray diffraction spectra of crystalline epirubicin hydrochloride of type I and type II were obtained. Powder X-ray diffraction spectra were measured using a Rigaku Cu Anode X-ray Diffractometer (MiniFlex). The conditions for analysis of the samples was as follows:
FIGS. 16, 18 and 20 illustrate the X-Ray Diffraction spectra of the mentioned above 3 commercial batches, undergone 6 months of Accelerated storage conditions (40° C.).

Q: Which results are given for `COc1cccc2c1C(=O)c1c(O)c3c(c(O)c1C2=O)C[C@@](O)(C(=O)CO)C[C@@H]3OC1CC(N)C(O)C(C)O1.Cl` (stereo partly drawn) [epirubicin hydrochloride]?
A: shelf life ([1]; concluded from the 40° C. storage study, compared with type I): longer than the shelf life of type I crystalline epirubicin hydrochloride; thermal stability ([1]; kept at 40° C. for six months, compared with type I crystalline epirubicin hydrochloride): much greater thermal stability than type I crystalline epirubicin hydrochloride; thermal stability by X-Ray Diffraction spectra [2]: thermally stable
